# Measured values published in US20240216401A1, “COMBINATION THERAPY BY USING AKR1C3-ACTIVATED COMPOUND WITH IMMUNE CHECKPOINT INHIBITOR” (OBI Pharma, Inc., priority 2021, published 2024).
# “And” between values parts separate entries of the source, which are not always exact repeats. Equal entries are not always repeated.
# Assays:
# [1] = Example 2: body weight of HepG2 tumor bearing humanized mice; type: in vivo, Mus musculus; conditions: for Body Weight: individual animal; for Body Weight (g) Mean: group mean
# Method: 1. Species: Mus musculus • Strain: Advanced immunodeficiency mouse. • (NOD.CgPrkdc^scid Il2rg) • Source: Trineo Biotechnology Co., LTD.
# Each group contains six mice. The human hepatocellular carcinoma cell line HepG2 were subcutaneously inoculated to the advanced immune-deficiency mice. Total of 42 mice were included in this study.
# 3.1. […] The injection was performed using insulin syringe with the dosage of 0.3 mg/kg or 1 mg/kg and the injection volume was 5 mL/kg. […] The reference item was administered for G1. The procedure followed the standards of sample administration. The starting day of test item administration was denoted as the first experimental day (DO).
# 3.2. […] The injection was performed using insulin syringe with the dosage of 20 mg/kg and injection volume of 10 mL/kg. […] The procedure followed the standards of sample administration.
# The measurement was performed from the next day of the inoculation. The animal body weights were measured and recorded twice per week.
# [2] = test system: NK cells in tumor-infiltrating lymphocytes; assay: Example 2: flow cytometry, percentage of NK cells in TILs; type: in vivo, Mus musculus; conditions: individual animals and Mean
# Method: (§1) Mice were sacrificed by CO2 euthanasia at the end of the study duration, and the connective tissue around tumor was resected. The tumor samples were then weighed and cut equally into three sections if the tumor weight over 400 mg. The tumor tissue was prepared for the isolation of tumor-infiltrating lymphocytes (TILs). The rest of one section was fixed in 10% formaldehyde and embedded in paraffin; the other was stored at a temperature below −70° C.
# (§2) The tumor samples were dissected into smaller fragments using scalpels and then digested with a cocktail of collagenase, DNase I, and Hyaluronidase (Collagenase #C5138, DNase I #D5025, Hyaluronidase #H6254, SigmaAldrich) for at least 2 hours.
# (§3) Cells were stained with the fluorescently conjugated surface antibodies and incubated for 30 minutes at 4° C., and then resuspended in staining buffer for flow cytometric analysis. Flow cytometry was done using a Navios EX Flow Cytometer (Beckman Coulter). Data were analyzed using the Kaluza Analysis Software (Beckman Coulter).
# [3] = test system: preclinical models of T-ALL; conditions: in vitro and in vivo; references 25, 26; cited from earlier work
# [4] = test system: Dendritic cells in tumor-infiltrating lymphocytes; assay: Example 2: flow cytometry, percentage of Dendritic cells in TILs; type: in vivo, Mus musculus; conditions: individual animals and Mean
# Method: as §1, §2, §3
# [5] = G2: OBI-3424 (0.3 mg/kg), 0.3 mg/kg
# [6] = G2: OBI-3424 (0.3 mg/kg), 0.3 mg/kg, mean
# [7] = G3: OBI-3424 (1 mg/kg), 1 mg/kg
# [8] = G3: OBI-3424 (1 mg/kg), 1 mg/kg, mean
smiles,measurement,setting,value
"C[C@H](OP(=O)(N1CC1)N1CC1)c1ccc([N+](=O)[O-])c(Oc2cccc(C(=O)N(C)C)c2)c1 [OBI-3424, (S)-1-(3-(3-N,N-dimethylaminocarbonyl)phenoxyl-4-mtrophenyl)-1-ethyl-N,N′-bis(ethylene)phosphoramidate]",body weight (in words),"[1]; Example 2, until Day 30",Body weight loss was not seen
same,Body Weight,"[1]; G2: OBI-3424 0.3 mg/kg, D2 after test item administration, 0.3 mg/kg",22.12 g
same,Body Weight,"[1]; G2: OBI-3424 0.3 mg/kg, D6 after test item administration, 0.3 mg/kg",24.82 g
same,Body Weight,"[1]; G2: OBI-3424 0.3 mg/kg, D9 after test item administration, 0.3 mg/kg",20.84 g and 24.58 g
same,Body Weight,"[1]; G2: OBI-3424 0.3 mg/kg, D13 after test item administration, 0.3 mg/kg",23.96 g and 24.87 g
same,Body Weight,"[1]; G2: OBI-3424 0.3 mg/kg, D16 after test item administration, 0.3 mg/kg",24.02 g and 24.56 g and 24.17 g
same,Body Weight,"[1]; G2: OBI-3424 0.3 mg/kg, D20 after test item administration, 0.3 mg/kg",22.00 g and 24.21 g and 23.98 g
same,Body Weight,"[1]; G2: OBI-3424 0.3 mg/kg, D23 after test item administration, 0.3 mg/kg",23.98 g
same,Body Weight (g) Mean,"[1]; G2: OBI-3424 0.3 mg/kg, D30 after test item administration",22.06 g
same,Body Weight,"[1]; G2: OBI-3424 0.3 mg/kg, D30 after test item administration, 0.3 mg/kg",20.17 g and 21.65 g
same,Body Weight,"[1]; G2: OBI-3424 0.3 mg/kg, L0 after tumor cell injection, 0.3 mg/kg",20.66 g and 23.04 g and 25.00 g
same,Body Weight,"[1]; G2: OBI-3424 0.3 mg/kg, L1 after tumor cell injection, 0.3 mg/kg",23.02 g
same,Body Weight (g) Mean,"[1]; G2: OBI-3424 0.3 mg/kg, L3 after tumor cell injection",22.99 g
same,Body Weight,"[1]; G2: OBI-3424 0.3 mg/kg, L7 after tumor cell injection, 0.3 mg/kg",23.01 g
same,Body Weight,"[1]; G3: OBI-3424 1 mg/kg, D2 after test item administration, 1 mg/kg",20.20 g and 24.22 g
same,Body Weight,"[1]; G3: OBI-3424 1 mg/kg, D6 after test item administration, 1 mg/kg",24.90 g
same,Body Weight,"[1]; G3: OBI-3424 1 mg/kg, D9 after test item administration, 1 mg/kg",22.01 g and 24.85 g
same,Body Weight,"[1]; G3: OBI-3424 1 mg/kg, D13 after test item administration, 1 mg/kg",25.97 g
same,Body Weight,"[1]; G3: OBI-3424 1 mg/kg, D20 after test item administration, 1 mg/kg",24.21 g and 25.53 g and 21.98 g
same,Body Weight (g) Mean,"[1]; G3: OBI-3424 1 mg/kg, D23 after test item administration",24.04 g
same,Body Weight,"[1]; G3: OBI-3424 1 mg/kg, D23 after test item administration, 1 mg/kg",23.02 g and 25.37 g
same,Body Weight,"[1]; G3: OBI-3424 1 mg/kg, D30 after test item administration, 1 mg/kg",22.02 g
same,Body Weight,"[1]; G3: OBI-3424 1 mg/kg, L0 after tumor cell injection, 1 mg/kg",19.46 g
same,Body Weight,"[1]; G3: OBI-3424 1 mg/kg, L3 after tumor cell injection, 1 mg/kg",20.70 g and 24.21 g and 20.80 g and 24.01 g
same,Body Weight,"[1]; G3: OBI-3424 1 mg/kg, L7 after tumor cell injection, 1 mg/kg",24.22 g and 25.55 g
same,NK cells (CD45^+CD56^+) CD45^+ Gated %,[2]; [5],6.33% and 8.78% and 8.87% and 10.05% and 2.25% and 6.70%
same,NK cells (CD45^+CD56^+) Cell count,[2]; [5],2.30 ×10^5 and 6.67 ×10^5 and 20.68 ×10^5 and 1.46 ×10^5 and 2.47 ×10^5 and 1.84 ×10^5
same,NK cells (CD45^+CD56^+) Total %,[2]; [5],1.18% and 3.26% and 3.83% and 6.83% and 1.00% and 2.54%
same,PD-1^+ NK cells (CD45^+CD56^+PD-1^+) Cell count,[2]; [5],1.65 ×10^5 and 2.21 ×10^5 and 10.85 ×10^5 and 0.31 ×10^5 and 2.17 ×10^5 and 0.83 ×10^5
same,PD-1^+ NK cells (CD45^+CD56^+PD-1^+) NK Gated %,[2]; [5],71.96% and 33.17% and 52.46% and 21.08% and 87.65% and 44.79%
same,PD-1^+ NK cells (CD45^+CD56^+PD-1^+) Total %,[2]; [5],0.85% and 1.08% and 2.01% and 1.44% and 0.88% and 1.14%
same,NK cells (CD45^+CD56^+) CD45^+ Gated %,[2]; [6],7.16%
same,NK cells (CD45^+CD56^+) Cell count,[2]; [6],5.90 ×10^5
same,NK cells (CD45^+CD56^+) Total %,[2]; [6],3.11%
same,PD-1^+ NK cells (CD45^+CD56^+PD-1^+) Cell count,[2]; [6],3.00 ×10^5
same,PD-1^+ NK cells (CD45^+CD56^+PD-1^+) NK Gated %,[2]; [6],51.85%
same,PD-1^+ NK cells (CD45^+CD56^+PD-1^+) Total %,[2]; [6],1.23%
same,NK cells (CD45^+CD56^+) CD45^+ Gated %,[2]; [7],3.99% (2×) and 5.65% and 6.00% and 4.05% and 4.24%
same,NK cells (CD45^+CD56^+) Cell count,[2]; [7],0.77 ×10^5 and 4.27 ×10^5 and 2.08 ×10^5 and 2.41 ×10^5 and 1.96 ×10^5 and 1.99 ×10^5
same,NK cells (CD45^+CD56^+) Total %,[2]; [7],2.64% and 3.38% and 2.95% and 2.44% and 2.63% and 2.46%
same,PD-1^+ NK cells (CD45^+CD56^+PD-1^+) Cell count,[2]; [7],0.26 ×10^5 and 1.64 ×10^5 and 1.02 ×10^5 and 1.77 ×10^5 (2×) and 1.04 ×10^5
same,PD-1^+ NK cells (CD45^+CD56^+PD-1^+) NK Gated %,[2]; [7],34.34% and 38.34% and 48.85% and 73.40% and 53.12% and 88.62%
same,PD-1^+ NK cells (CD45^+CD56^+PD-1^+) Total %,[2]; [7],0.91% and 1.30% and 1.44% and 1.79% and 1.40% and 2.18%
same,NK cells (CD45^+CD56^+) CD45^+ Gated %,[2]; [8],4.65%
same,NK cells (CD45^+CD56^+) Cell count,[2]; [8],2.25 ×10^5
same,NK cells (CD45^+CD56^+) Total %,[2]; [8],2.75%
same,PD-1^+ NK cells (CD45^+CD56^+PD-1^+) Cell count,[2]; [8],1.25 ×10^5
same,PD-1^+ NK cells (CD45^+CD56^+PD-1^+) NK Gated %,[2]; [8],56.11%
same,PD-1^+ NK cells (CD45^+CD56^+PD-1^+) Total %,[2]; [8],1.50%
same,efficacy against preclinical models of T-ALL (in words),[3],potent efficacy
same,CD86^+ DC cells (CD45^+CD11c^+CD86^+) Cell count,[4]; [5],6.36 ×10^5 and 14.34 ×10^5 and 27.59 ×10^5 and 1.25 ×10^5 and 15.63 ×10^5 and 4.71 ×10^5
same,CD86^+ DC cells (CD45^+CD11c^+CD86^+) Total %,[4]; [5],3.27% and 7.01% and 5.11% and 5.82% and 6.34% and 6.50%
same,CD91^+ DC cells (CD45^+CD11c^+CD91^+) Cell count,[4]; [5],0.18 ×10^5 and 0.16 ×10^5 and 0.54 ×10^5 and 0.02 ×10^5 and 0.22 ×10^5 and 0.04 ×10^5
same,CD91^+ DC cells (CD45^+CD11c^+CD91^+) Total %,[4]; [5],0.09% (2×) and 0.08% (2×) and 0.10% and 0.06%
same,DC cells (CD45^+CD11c^+) CD45+ Gated %,[4]; [5],32.90% and 30.81% and 44.83% and 19.60% and 24.30% and 36.70%
same,DC cells (CD45^+CD11c^+) Cell count,[4]; [5],10.62 ×10^5 and 23.35 ×10^5 and 105.79 ×10^5 and 2.74 ×10^5 and 25.44 ×10^5 and 9.18 ×10^5
same,DC cells (CD45^+CD11c^+) Total %,[4]; [5],5.46% and 11.42% and 19.59% and 12.80% and 10.32% and 12.66%
same,CD86^+ DC cells (CD45^+CD11c^+CD86^+) Cell count,[4]; [6],11.65 ×10^5
same,CD86^+ DC cells (CD45^+CD11c^+CD86^+) Total %,[4]; [6],5.68%
same,CD91^+ DC cells (CD45^+CD11c^+CD91^+) Cell count,[4]; [6],0.19 ×10^5
same,CD91^+ DC cells (CD45^+CD11c^+CD91^+) Total %,[4]; [6],0.08%
same,DC cells (CD45^+CD11c^+) CD45+ Gated %,[4]; [6],31.52%
same,DC cells (CD45^+CD11c^+) Cell count,[4]; [6],29.52 ×10^5
same,DC cells (CD45^+CD11c^+) Total %,[4]; [6],12.04%
same,CD86^+ DC cells (CD45^+CD11c^+CD86^+) Cell count,[4]; [7],2.23 ×10^5 and 10.59 ×10^5 and 5.46 ×10^5 and 6.73 ×10^5 and 6.98 ×10^5 and 7.11 ×10^5
same,CD86^+ DC cells (CD45^+CD11c^+CD86^+) Total %,[4]; [7],7.68% and 8.39% and 7.73% and 6.81% and 9.38% and 8.78%
same,CD91^+ DC cells (CD45^+CD11c^+CD91^+) Cell count,[4]; [7],0.04 ×10^5 (2×) and 0.10 ×10^5 and 0.06 ×10^5 (2×) and 0.08 ×10^5
same,CD91^+ DC cells (CD45^+CD11c^+CD91^+) Total %,[4]; [7],0.14% and 0.08% (2×) and 0.09% and 0.06% and 0.07%
same,DC cells (CD45^+CD11c^+) CD45+ Gated %,[4]; [7],23.54% and 31.09% and 41.01% and 19.89% and 35.18% and 28.58%
same,DC cells (CD45^+CD11c^+) Cell count,[4]; [7],4.40 ×10^5 and 23.57 ×10^5 and 13.84 ×10^5 and 12.22 ×10^5 and 16.67 ×10^5 and 14.15 ×10^5
same,DC cells (CD45^+CD11c^+) Total %,[4]; [7],15.16% and 18.68% and 19.60% and 12.37% and 22.41% and 17.47%
same,CD86^+ DC cells (CD45^+CD11c^+CD86^+) Cell count,[4]; [8],6.52 ×10^5
same,CD86^+ DC cells (CD45^+CD11c^+CD86^+) Total %,[4]; [8],8.13%
same,CD91^+ DC cells (CD45^+CD11c^+CD91^+) Cell count,[4]; [8],0.06 ×10^5
same,CD91^+ DC cells (CD45^+CD11c^+CD91^+) Total %,[4]; [8],0.09%
same,DC cells (CD45^+CD11c^+) CD45+ Gated %,[4]; [8],29.88%
same,DC cells (CD45^+CD11c^+) Cell count,[4]; [8],14.14 ×10^5
same,DC cells (CD45^+CD11c^+) Total %,[4]; [8],17.62%
